From PMC3703888, “Integration of Different “-omics” Technologies Identifies Inhibition of the IGF1R-Akt-mTOR Signaling Cascade Involved in the Cytotoxic Effect of Shikonin against Leukemia Cells” (Evidence-based Complementary and Alternative Medicine : eCAM, 2013)

Biological target: T1, IGF1R (Homo sapiens, UniProt P08069)
T1 construct: purchased ProQinase GmbH (Freiburg, Germany)
Assay: Radiometric protein kinase assay (33PanQinase Activity Assay)
Type: biochemical
Settings: purified IGF1R kinase, nonlinear regression
Experimental: The kinase inhibition assay was performed by ProQinase GmbH (Freiburg, Germany). Shikonin was provided as 1.85 × 10^−3 M stock solution in DMSO. In the process, shikonin was serially diluted in semi-log steps with 100% DMSO in a 96-well microtiter plate. Directly before use, shikonin was further diluted 1 : 10 with water. Shikonin was tested at 10 final assay concentrations in the range from 1.85 × 10^−5 M to 5.55 × 10^−10 M. The final DMSO concentration in the reaction cocktails was 1% in all cases. A radiometric protein kinase assay (^33PanQinase Activity Assay) was used for measuring the kinase activity of IGF1R. All kinase assays were performed in 96-well FlashPlates from Perkin Elmer (Boston, MA, USA) in a 50 μL reaction volume. […] Incorporation of ^33Pi (counting of “cpm”) was determined with a Wallac MicroBeta scintillation counter (Perkin Elmer). […] Kinase activity was evaluated based on a comparison with experiments containing the complete reaction cocktail but no shikonin. A complete reaction cocktail without kinase served as control for unspecific binding of radioactivity to the plate in the absence of protein kinase but in the presence of shikonin. IC50 values were calculated by nonlinear regression using Prism 5.04 (Graphpad, CA, USA).

T1 sequence (P08069 31-1367): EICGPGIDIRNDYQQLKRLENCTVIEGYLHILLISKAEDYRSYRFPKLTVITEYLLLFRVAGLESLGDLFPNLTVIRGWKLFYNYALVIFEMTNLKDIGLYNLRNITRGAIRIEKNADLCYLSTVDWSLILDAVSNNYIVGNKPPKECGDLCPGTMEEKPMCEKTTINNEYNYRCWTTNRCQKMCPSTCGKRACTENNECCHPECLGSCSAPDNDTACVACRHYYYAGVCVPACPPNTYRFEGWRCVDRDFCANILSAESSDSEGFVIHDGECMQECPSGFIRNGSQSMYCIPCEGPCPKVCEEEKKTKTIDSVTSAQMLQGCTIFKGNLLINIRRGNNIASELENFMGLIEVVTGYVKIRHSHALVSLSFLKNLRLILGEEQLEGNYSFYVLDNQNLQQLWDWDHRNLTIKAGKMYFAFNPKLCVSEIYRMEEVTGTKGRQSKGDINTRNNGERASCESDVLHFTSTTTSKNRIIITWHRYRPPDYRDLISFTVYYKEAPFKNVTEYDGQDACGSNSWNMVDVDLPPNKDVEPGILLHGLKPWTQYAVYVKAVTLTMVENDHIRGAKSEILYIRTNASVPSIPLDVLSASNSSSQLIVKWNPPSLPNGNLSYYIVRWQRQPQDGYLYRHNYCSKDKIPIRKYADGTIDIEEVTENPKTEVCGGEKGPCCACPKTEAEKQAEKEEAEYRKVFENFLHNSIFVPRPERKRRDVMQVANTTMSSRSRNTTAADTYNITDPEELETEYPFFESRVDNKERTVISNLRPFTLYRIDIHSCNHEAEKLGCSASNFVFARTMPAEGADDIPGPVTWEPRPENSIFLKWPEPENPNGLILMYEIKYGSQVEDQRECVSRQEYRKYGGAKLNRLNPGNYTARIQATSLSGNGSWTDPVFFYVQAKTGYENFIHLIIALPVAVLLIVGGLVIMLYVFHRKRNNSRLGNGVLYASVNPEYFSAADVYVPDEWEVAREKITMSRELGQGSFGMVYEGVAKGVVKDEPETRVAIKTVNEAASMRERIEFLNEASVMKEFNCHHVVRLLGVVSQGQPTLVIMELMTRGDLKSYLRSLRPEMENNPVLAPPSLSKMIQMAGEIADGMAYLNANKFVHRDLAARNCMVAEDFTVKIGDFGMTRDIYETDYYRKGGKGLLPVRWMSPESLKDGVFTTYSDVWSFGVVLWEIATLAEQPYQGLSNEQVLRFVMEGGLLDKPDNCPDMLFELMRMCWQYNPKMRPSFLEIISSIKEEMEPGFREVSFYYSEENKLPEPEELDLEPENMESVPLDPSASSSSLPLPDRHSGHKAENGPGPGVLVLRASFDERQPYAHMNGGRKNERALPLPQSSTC

In the case of `CC(C)=CC[C@@H](O)C1=CC(=O)c2c(O)ccc(O)c2C1=O` [shikonin], the IC50 is reported as 2600 nM.
